Here are results for 1 substance from patent US12458688B2, “Epitopes” (Scancell Limited, priority 2018, dated 2025).

Where no end group is shown, it is not given here. [ ]: non-standard residue; d: D form. hCit = NC(=O)NCCCC[C@H](N)C(=O)O

The subject of assay [1] is IFNγ-inducible B16 DR4 tumour. Description: Tumour therapy, IFNγ-inducible B16 DR4 tumour in HLA-DR4 mice. The format is in vivo, mouse. The conditions noted are these: peptide with CpG/MPLA. The text has this: To mimic the naturally occurring tumour, we engineered B16F1 cells to express HLA-DR4 under control of mouse IFNγ-inducible promoter. […] HLA-DR4 mice were then implanted with this IFNγ-inducible B16 DR4 tumour followed by immunisation with vimentin 116-135Hcit peptide (FIG. 19e).

Another assay concerns C57BI/6 mice. Description: Ex vivo IFNγ ELISpot after peptide immunisation, C57Bl/6 mice. The format is in vivo, mouse. On the procedure:
(§1) C57BL/6 mice (Charles River, UK), HLA-DR4 mice (Model #4149, Taconic, USA), HLA-A2/DR1 (HHDII/DR1, Pasteur Institute), HLA-A2.1+/+HLA-DP4+/+hCD4+/+ (HLA-HHDII/DP4) transgenic mice (EM: 02221, European Mouse Mutant Archive) described in patent WO2013/017545 A1 (EMMA repository, France) were used, aged between 8 and 12 weeks. Peptides were dissolved in PBS to 1 mg/ml and then emulsified (a series of dilutions) with CpG ODN 1826 and MPLA 6 μg/mouse of each (Invivogen, UK). Peptides (25 μg/mouse) were injected subcutaneously at the base of the tail. Mice were immunised at days 1, 7 and 14 for peptide immunisation. Spleens were removed for analysis at day 21 unless stated otherwise.
(§2) ELISpot assays were performed using murine IFNγ, IL-17 and IL-10 capture and detection reagents according to the manufacturer's instructions (Mabtech, Sweden). In brief, anti-IFNγ, IL-17 and IL-10 specific antibodies were coated onto wells of 96-well Immobilin-P plate. […] After incubation, captured IFNγ, IL-10 and IL-17 were detected by biotinylated anti-IFNγ, IL-10 and IL-17 antibodies and developed with a streptavidin alkaline phosphatase and chromogenic substrate. […] Spots were analysed and counted using an automated plate reader (Cellular Technologies Ltd).
Significant IFNγ responses were detected to peptide vimentin 116-135 Hcit. […]

The test system of assay [2] is splenocytes from immunised mice. Description: Ex vivo IL-17 ELISpot after peptide immunisation. The conditions noted are these: mouse, in vivo. On the procedure: as §1, §2
The next assay relates to B16F1 DR4 tumours. Description: Tumour therapy, B16F1 DR4 tumour in DR4 mice. The format is in vivo, mouse. The conditions noted are these: peptide with CpG/MPLA days 4, 11, 18. The text has this: To determine if the epitopes that stimulate T cell responses are presented on MHC-II within the tumour environment, our homocitrullinated peptides were checked for tumour therapy in B16 tumour models. Mice were implanted with tumour cells on day 1 and then immunised with peptides and CpG/MPLA on days 4, 11 and 18.
HHDII/DR1 (FIG. 19a) or DR4 (FIG. 19b) transgenic mice were challenged with B16F1 HHDII/DR1 or B16F1 DR4 tumours respectively prior to immunisation with vimentin 116-135Hcit peptide and tumour growth and survival were monitored.

Assay [3] has as its system B16F1 HHDII cells that cannot express DR1. Briefly: Tumour therapy, B16F1 HHDII lacking DR1 in HHDII/DR1 mice. The format is in vivo, mouse. The conditions noted are these: tumour without DR1. The text has this: (§3) This is also true in the ALDOA immunised mice.
Assay [4] has as its system tumour cells that were not able to express HLA-DR4. Briefly: Tumour therapy, B16F1 lacking DR4 in HLA-DR4 mice. The class given is in vivo, mouse. To be noted: tumour without HLA-DR4.
Description: as §3

The subject of assay [5] is splenocytes from immunised mice. Description: Ex vivo IL-10 ELISpot after peptide immunisation. The conditions noted are these: mouse, in vivo. On the procedure:
as §1, §2

In the case of “NYID-Hcit-VRFLEQQN-Hcit-ILLAEL (NYID[hCit]VRFLEQQN[hCit]ILLAEL) [Vimentin 116-135 Hcit]”, the survival in assay [1] amounted to 40%. The “IFNγ ELISpot response” value in the assay with C57BI/6 mice was “no IFNγ responses were observed”. Further, the “IL-17 ELISpot response” value in assay [2] is recorded as “no production”. The overall survival in the assay on B16F1 DR4 tumours is on record as 70%. In assay [3], the survival vs control entry is listed as “no survival advantage”. The survival rate in assay [4] worked out at 20%. Further, the “IL-10 ELISpot response” value in assay [5] was “no production”.
